Experimental data from patent publication US9610274B2, “Methods for treating bipolar disorder” (priority 2010, dated 2017).

Legend:
Format in all cases: in vivo
isolated mice = assay: Isolation-induced fighting in mice; settings: Mus musculus
Description: Male CD-1 mice (15-20 g) were utilized in this experiment. The test compound (15, 22 and 30 mg/kg) was dissolved in physiological saline (0.9%) and administered orally (PO) in a volume of 1 mL/100 g body weight.
Mice were isolated for up to 8 weeks in individual solid walled wire cages (24×20×17 cm). The animals were not disturbed except to replenish food. Aggression was tested by placing an intruder mouse into the home cage of the resident animal. Aggression was characterized by an attack on the “intruder” during a three minute period. […] Only those resident mice displaying fighting behavior were selected. […] ED50 values were calculated from the percent inhibition of fighting in computer program based on probit analysis.

[1] = test system: homozygous mutant dopamine transporter knockout (KO) mice; assay: Spontaneous activity in the open field, dopamine transporter KO mice; settings: single SC injection, test compound 10, 30, 100 mg/kg, amphetamine 2 mg/kg, 90 min post-injection, relative to vehicle
Description: Male and female wild-type and homozygous mutant dopamine transporter KO mice (n˜10 mice/genotype/agent; produced by in vivo homologous recombination and bred at Duke University Medical Center, Durham, N.C.) were tested for spontaneous activity in the open field following a single injection of the vehicle or compound. […] All drugs were given in a volume of 5 mL/kg. Animals were returned to the open field for an additional 90 min. Spontaneous activity was evaluated in an automated Omnitech Digiscan apparatus (Accuscan Instruments, Columbus, Ohio). Activity was summated at 5 min intervals over the 2 h period of testing. Horizontal activity or locomotion was measured in terms of the total distance covered in cm, vertical activity or rearing was expressed in terms of the total numbers of vertical beam breaks, and stereotypy was quantified in terms of repetitive breaks of a given beam or beams with intervals of less than 1 sec. For the analyses, 10 WT and 10 KO mice were run in each of the treatment groups with approximately equal numbers of males and females assigned to each group. Data were analyzed by the Statistical Package for Social Sciences programs (version 11.0 for Windows; SPSS Science, Chicago, Ill.). The results for each dependent variable were analyzed by repeated analyses of variance (RMANOVA) for within subjects effects (group differences over time) and between-subjects effects (tests of main effects and interactions). Bonferroni corrected pair-wise comparisons were used as the post-hoc tests. A p <0.05 was considered significant.

wild-type mice = assay: Spontaneous activity in the open field, wild-type mice; settings: WT mice; amphetamine 2 mg/kg SC; relative to vehicle
Description: Male and female wild-type and homozygous mutant dopamine transporter KO mice (n˜10 mice/genotype/agent; produced by in vivo homologous recombination and bred at Duke University Medical Center, Durham, N.C.) were tested for spontaneous activity in the open field following a single injection of the vehicle or compound. Mice were placed into the open field for 30 min and administered SC the vehicle (sterile water), 2 mg/kg amphetamine, or three concentrations of the test compound (10, 30, 100 mg/kg). All drugs were given in a volume of 5 mL/kg. Animals were returned to the open field for an additional 90 min. Spontaneous activity was evaluated in an automated Omnitech Digiscan apparatus (Accuscan Instruments, Columbus, Ohio). […] Horizontal activity or locomotion was measured in terms of the total distance covered in cm, vertical activity or rearing was expressed in terms of the total numbers of vertical beam breaks, and stereotypy was quantified in terms of repetitive breaks of a given beam or beams with intervals of less than 1 sec. […] Data were analyzed by the Statistical Package for Social Sciences programs (version 11.0 for Windows; SPSS Science, Chicago, Ill.). The results for each dependent variable were analyzed by repeated analyses of variance (RMANOVA) for within subjects effects (group differences over time) and between-subjects effects (tests of main effects and interactions). […]

[2] = test system: adult human subjects with moderate or severe major depression without psychotic features; assay: Randomized double-blind placebo- and active-controlled 6-week study in major depression; settings: paroxetine 20 mg/day; for MADRS response rate / MADRS remission rate: Week 6; for MADRS response rate: >50% improvement in MADRS total score; for MADRS remission rate: MADRS total score less than 9
Description: The primary objective of this study was to determine the efficacy of 2 target doses of test compound (200 and 400 mg/day) in comparison with placebo during 6 weeks of treatment in adult human subjects with moderate or severe major depression without psychotic features. An active comparator (paroxetine) was included to assist in distinguishing a negative study from a failed study. In addition, an exit interview was intended to gather information on unexpected benefits of the test compound in order to refine the clinical development program. […] In addition, positive effects of the test compound on ratings of physical energy/fitness, reduction in sadness or depression and mental energy or motivation.
This was a randomized, double-blind, parallel-group, active, and placebo-controlled, multicenter study conducted in the U.S. (23 centers) and Canada (4 centers). There were 2 phases: a pretreatment phase (screening/washout and a baseline visit) and a 6-week, double-blind treatment phase. Paroxetine, a positive control, was included to evaluate assay sensitivity. After washout (if needed) of prohibited substances, subjects were randomly assigned (1:1:1:1) to receive the test compound titrated to a target dose of 200 mg/day or 400 mg/day, matching placebo, or a fixed dose (20 mg/day) of paroxetine. Study drug was given twice daily for 6 weeks. Efficacy and safety were assessed weekly during the double-blind phase. Subjects completing the study underwent an Exit Interview (“Your Health and Well-Being”) and completed an Assessment of Benefits of Clinical-trial Drug-treatment (ABCD) questionnaire (U.S. sites only).

[3] = ITT (LOCF), change from baseline at Week 6
[4] = Per-Protocol (LOCF), change from baseline at Week 6

Structure (SMILES): CN(C)CCCN1c2ccccc2CCc2ccccc21 [Imipramine, imipramine, reference compound]
- inhibition at 15 mg/kg (isolated mice; 1 h, 15 mg/kg PO, 60 min after dosing): 20%
- inhibition at 30 mg/kg (isolated mice; 1 h, 30 mg/kg PO, 60 min after dosing): 50%
- ED50 (isolated mice; PO, inhibition of isolation-induced fighting, probit analysis, read-out: ED50 (mg/kg, PO) (confidence limits)): ~30 mg/kg

Structure (SMILES): CC(N)Cc1ccccc1 (stereo not drawn) [Amphetamine, amphetamine, reference compound]
- spontaneous activity (locomotor, rearing and stereotypical activities) [1]: decreased them in KO animals
- spontaneous activity (locomotor, rearing and stereotypical activities) (wild-type mice): increased locomotor, rearing and stereotypical activities in WT mice

Structure (SMILES): Fc1ccc([C@@H]2CCNC[C@H]2COc2ccc3c(c2)OCO3)cc1 [Paroxetine, paroxetine, reference compound]
- MADRS response rate ([2]; ITT (LOCF)): 48%
- MADRS remission rate ([2]; ITT (LOCF)): 26%
- 3 Atypical items of HAM-D 31, mean result [2, 3]: −0.6
- CGI-S score, mean result [2, 3]: −1.5
- MADRS core mood subscale, mean result [2, 3]: −9.7
- MADRS sadness (Items 1 + 2), mean result [2, 3]: −3.9
- MADRS total score (primary), mean result [2, 3]: −14.1
- superiority to placebo on the primary endpoint (change from baseline at Week 6 in MADRS total score) ([2]; ITT (LOCF), test compound 200 mg and 400 mg): statistically significant superiority to placebo
- MADRS response rate ([2]; Per-Protocol (LOCF)): 60%
- MADRS remission rate ([2]; Per-Protocol (LOCF)): 35%
- CGI-S score, mean result [2, 4]: −1.9
- MADRS total score, mean result [2, 4]: −17.1
- ABCD questionnaire items with statistically significant superiority to placebo ([2]; post hoc analyses, of 51 items, U.S. sites): 14 items
